Measured values published in patent publication US4733003A, “Octahydronaphthalene derivatives and their preparation” (Sankyo Company Limited, priority 1981, dated 1988).

test system: cholesterol biosynthesis; assay: inhibition of cholesterol biosynthesis (method of J. Biol. Chem. 234, 2835 (1959)); type: biochemical; settings: method of Journal of Biological Chemistry, 234, 2835 (1959)
From the text: The compounds of the invention in which R^1 and R^2 both represent oxygen atoms are, as already described, valuable intermediates for the synthesis of the active compounds. The inhibitory activities of certain of the compounds of the invention, in terms of the concentration in ng/ml required to inhibit colesterol biosynthesis by 50% [measured by the method described in the Journal of Biological Chemistry, 234, 2835 (1959)], are as follows (for comparison, the value for ML-236B lactone is also given): […]

| Structure (SMILES) | concentration required to inhibit colesterol biosynthesis by 50% [ng/mL] |
| --- | --- |
| CCC(C)C(=O)OC1CCC(=NO)C2=CC(=O)C(C)C(CCC(O)CC(O)CC(=O)O)C21 (centres unmarked) [sodium 3,4-dihydro-6-oxo-4-hydroxyiminoIsoML-236B carboxylat] [Sodium 3,4-dihydro-6-oxo-4-hydroxyiminoIsoML-236B carboxylate] | 0.3 |
| CCC(C)C(=O)OC1CCC(=NO)C2=CC(=O)C(C)C(CCC3CC(O)CC(=O)O3)C21 (centres unmarked) [3,4-Dihydro-6-oxo-4-hydroxyiminoIsoML-236B lactone] | 0.3 |
| CCC(C)C(=O)OC1CCC(=NO)C2=CC(=NO)C(C)C(CCC3CC(O)CC(=O)O3)C21 (single isomer, unassigned) [isomer a (Example 3), 3,4-Dihydro-4,6-bis(hydroxyimino)IsoML-236B lactone] | 4.5 |
| CCC(C)C(=O)OC1CCC(=NO)C2=CC(=NO)C(C)C(CCC3CC(O)CC(=O)O3)C21 (single isomer, unassigned) [isomer b (Example 3), 3,4-Dihydro-4,6-bis(hydroxyimino)IsoML-236B lactone] | 4.3 |
| CC1C(=O)C=C2C(=NO)CCC(O)C2C1CCC1CC(O)CC(=O)O1 (centres unmarked) [3,4-Dihydro-6-oxo-4-hydroxyiminoIsoML-236A lactone] | 0.9 |
| CCC(C)C(=O)OC1CCC(=NOC)C2=CC(=O)C(C)C(CCC3CC(O)CC(=O)O3)C21 (centres unmarked) [3,4-Dihydro-6-oxo-4-methoxyiminoIsoML-236B lactone] | 0.6 |
| CCC(C)C(=O)OC1CCC(=NO)C2=CC(=O)C(C)C(CCC(O)CC(O)CC(=O)O)C21 (centres unmarked) [disodium 3,4-dihydro-6-oxo-4-oxidoiminoIsoML-236B carboxylat] [Disodium 3,4-dihydro-6-oxo-4-oxidoiminoIsoML-236B carboxylate] | 0.4 |
| CCC(C)C(=O)OC1CCC=C2C=CC(C)C(CCC3CC(O)CC(=O)O3)C21 (centres unmarked) [ML-236B lactone, reference compound] | 10 |
